Measured values: patent US20230381142A1, “ANTILEISHMANIAL COMPOUNDS, COMPOSITIONS AND USE THEREOF” (TRUSTEES OF BOSTON UNIVERSITY, priority 2022, published 2023)
pEC50: −log10 of the molar value. Read-outs that look alike come from different tables or passages of the source. Marks after values point to notes of the source that are not given here.

Legend:
B10R cells = assay: UCSD infection assay, host cell cytotoxicity (CC50); type: cell-based; details: host B10R cells
[1] = system: L. major (strain LV39) intracellular amastigotes infecting THP-1 cells; assay: High content intracellular amastigote assay in THP-1 cells (Assay Conditions B); type: cell-based, Leishmania major; details: THP-1 cells; values marked b
Experimental: (§1) Assay Conditions B: THP-1 cells (human acute monocytic leukemia cell line—ATCC TIB202) were grown in RPMI supplemented with 10% Fetal Bovine Serum (FBS) and 50 μM 2-mercaptoethanol at 37° C. in 5% CO2. THP-1 were seeded in microwell plates at 5×10^5 cells/mL density and treated with 0.1 μM phorbol myristate acetate (PMA, Sigma) at 37° C. for 48 h for differentiation into adherent, non-dividing macrophages. After activation by PMA, cells were washed and incubated with complete RPMI medium containing stationary phase Leishmania promastigotes (L. major: strain LV39; L. donovani, strain 1S/Cl2D) at a 1:15 parasite-cell ratio. Compounds were added and incubated at 37° C. for 72 h. Cells were then washed with phosphate-buffered saline (PBS), fixed for 30 minutes with 4% formaldehyde, rinsed again with PBS, stained for 2 h with 4′,6′-diamidino-2-phenylindole (DAPI 300 nM) and finally washed with PBS. In a collaborative effort to identify new antileishmanial chemotypes with minimal host cell cytotoxicity, compounds from the Boston University Center for Molecular Discovery (BUCMD) screening collection were assessed in a phenotypic, high content primary screen at the University of California's Center for Discovery and Innovation in Parasitic Diseases (CDIPD) for the ability to inhibit growth of L. donovani intracellular amastigotes infecting THP-1 cells. […] Dose-response testing in L. donovani (both intracellular amastigotes and promastigotes) confirmed concentration-dependent growth inhibition of both morphologies of the parasite at low micromolar EC50 values for both compounds (Table 1).

[2] = GSK inMac assay, host cell toxicity readout (LD MAC); type: cell-based, human; details: human; footnote c; read-out: THP-1 Host Cell CC50
Outline: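 MAC EC50 reflects THP-1 host cell counts, measured within GSK's inMac L. donovani infection assay that also scores intracellular amastigotes and infected-cell percentage.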

[3] = system: L. donovani intracellular amastigotes infecting THP-1 macrophages; assay: GSK intramacrophage L. donovani assay (LD AMMAC, inMac; Assay Conditions C); type: cell-based; details: Leishmania donovani; THP-1 cells; values marked c; read-out: L. donovani amastigotes EC50 (THP-1 cells)
Outline: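 EC50 values come from counting amastigotes per infected THP-1 macrophage (AMMAC). Parallel read-outs give percentage of infected cells per well (INFCELL) and a macrophage-number toxicity EC50 (MAC).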

[4] = system: L. major promastigotes (strain LV39); assay: Promastigote assay, CellTiter-Glo (Assay Conditions F); type: cell-based; details: Leishmania major; footnote f; read-out: L. major promastigotes EC50
Experimental: (§2) Assay Conditions F: Leishmania promastigotes (L. major: strain LV39; L. donovani, strain 1S/Cl2D) were maintained as previously described in PloS Negl Trop Dis (2015) 9(3):e0003588 and Pathogens (2021) 10(5):593) at 28° C. in M199 media supplemented with glutamine, adenosine, folic acid, hemin, HEPES, 10% Fetal Bovine Serum (Sigma-Aldrich, cat. no. F2442) and 1% Penicillin-Streptomycin (Gibco, cat. no. 15140122). For the promastigote assay, we followed the method previously described in PloS Negl Trop Dis (2011) 5(7):e1253. Briefly, promastigotes were incubated with the compounds for 72 h at 27° C., then lysed by adding 50 μL of CellTiter-Glo (Promega) and placed on an orbital shaker for 5 min at room temperature. After lysis, the resulting ATP-bioluminescence was measured using the Analyst HT plate reader (Molecular Devices).

[5] = system: L. donovani promastigotes (strain 1S/Cl2D); assay: as above; type: cell-based; details: Leishmania donovani; footnote f; read-out: L. donovani promastigotes EC50
Experimental: as §2

THP-1 cells = assay: Host THP-1 cell cytotoxicity in the CDIPD high content screen; type: cell-based, human; details: Homo sapiens, THP-1; 10 μM; footnote b; read-out: THP-1 host cell % growth inhibition at 10 μM
Experimental: as §1

[6] = system: L. donovani intracellular amastigotes infecting THP-1 cells; assay: High content intracellular amastigote assay in THP-1 cells (Assay Conditions B; CDIPD screen); type: cell-based, Leishmania donovani; details: 10 μM; THP-1 cells; footnote b
Experimental: as §1

[7] = system: L. donovani intracellular amastigotes in B10R cells; assay: UCSD L. donovani infection assay (Assay Conditions D); type: cell-based; details: B10R cells; for L. donovani amastigotes EC75 (B10R cells): footnote d; for pEC50: Leishmania donovani, values marked d, read-out: L. donovani amastigotes EC50 (B10R cells)
Outline: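 Compounds, either single-point at 10 μM or 10-point 2-fold series (3 technical, 2 biological replicates), were incubated 72 h at 37° C. with B10R host cells co-seeded with day-7 stationary L. donovani promastigotes (20:1). DAPI-stained nuclei imaging yielded intracellular parasite EC50 and host-cell CC50.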

[8] = system: L. major-infected murine macrophages; assay: Macrophage infection with L. major and exposure to CMLDs; type: cell-based, Leishmania major; details: for number of intracellular amastigotes / percentage of infected cells: L. major, only observed at the highest dose (1 μM)
[9] = system: L. braziliensis (strain BA788) in J774 cells; assay: J774 luciferase infection assay (Assay Conditions E); type: cell-based, Leishmania braziliensis; details: footnote e
Experimental: (§3) Assay Conditions E: J774 cells (ATCC J774A.1 were grown in DMEM supplemented with 10% Fetal Bovine Serum (FBS) and 1% Penicillin-Streptomycin at 37° C. in 5% CO2. Leishmania parasites expressing luciferase and GFP were grown as described in Front. Cell. Infect. Microbiol (2019) 9:237. J774 cells were seeded in microwell plates at 3×10^5 cells/mL density. Cells were washed with PBS and incubated with complete DMEM medium containing stationary phase Leishmania promastigotes (L. major: strain Friedlin; L. braziliensis, strain BA788) at a 1:10 parasite-cell ratio for 24 h. Cells were washed with PBS. Cells and compounds were incubated for 48 h at 37° C. and 5% C02. Compounds were tested in 8-point 2-fold serial dilution in 4 technical replicates, and 2 biological replicates. After 48 h, OneTiterGlo (Promega) (100 μl) was added to each well. Plates were incubated for 15 min and bioluminescence was measured using a plate reader (Molecular Devices). Effective concentration inducing 75% activity (EC75) was calculated using GraphPad Prism Software (version 9.0).

[10] = system: macrophages from bone marrow; assay: Cellular viability of macrophages (Cell Titer Glo); type: cell-based, murine; details: 500-1000 nM, 24 h
Experimental: Briefly, macrophages were obtained from bone marrow and seeded at a density of 1×10^6 cells per well in 24-well culture plates. After 2 hours, cells were treated with compounds at two concentrations (500 and 1000 nm) for 24 hours. Cell viability was determined using Cell Titer Glo (Promega), according to manufacturer's instructions. For positive control, pararosaniline chloride was used.

[11] = system: L. braziliensis-infected macrophages; assay: Macrophage (BMDM) infection with L. braziliensis and exposure to CMLDs; type: cell-based, Leishmania braziliensis; details: for number of amastigotes per 100 macrophages / percentage of infected macrophages / pEC50: 24 h exposure; for pEC50: Leishmania braziliensis, Macrophage, percentage of infected macrophages, read-out: EC50 against L. braziliensis-infected macrophages
Experimental: Leishmania braziliensis (MIHOM/BR/00/BA788) and L. major (Friedlin) promastigotes were maintained in Schneider's medium (SIGMA) supplemented with 10% heat-inactivated FCS, 100 U/ml penicillin, 100 μg/ml streptomycin (all from Invitrogen).
BMDM were obtained as described above. Cells were resuspended in DMEM medium supplemented with 100 U/mL penicillin, […] streptomycin, and 10% heat-inactivated Fetal Bovine Serum (all from Invitrogen) and seeded at a density of 3×10^5 cells per well in 24-well culture plates. Monolayers received 3×10^6 cells L. braziliensis promastigotes and were incubated at 37° C. in supplemented DMEM medium for 24 h. Infected macrophages were then washed to remove non-internalized parasites. Compounds CMLD 011128, CMLD010947, CMLD010498, and CMLD011494 were added at different concentrations. After 24 hours, cells were extensively washed, fixed and stained with hematoxylin and eosin (H&E). The number of infected cells and of intracellular amastigotes were counted by optical microscopy in 200 macrophages. Positive controls consisted of cultures treated with Amphotericin B (0.25 μg/mL, Invitrogen). Cultures were performed in quintuplicate. Alternatively, infected macrophages were treated as described, monolayers were extensively washed and the medium was replaced by 0.5 ml of supplemented Schneider medium. Cells were cultured for seven additional days at 26° C., when number of viable promastigotes was determined using hemocytometer.
Results were expressed as the mean percentage reduction of infected cells compared with untreated control wells. Half-maximal effective concentrations (EC50) were determined by sigmoidal regression curves using Prism 7.0 software (GraphPad Software Inc.)

[12] = system: L. major (strain Friedlin) in J774 cells; assay: J774 luciferase infection assay (Assay Conditions E); type: cell-based, Leishmania major; details: values marked e
Experimental: as §3

[13] = UCSD infection assay, host cell cytotoxicity (CC50); type: cell-based; details: mouse, B10R host cells infected with L. donovani; footnote d
[14] = system: L. donovani intracellular amastigotes infecting THP-1 macrophages; details: GlaxoSmithKline Phase I VL candidates; read-out: intramacrophage EC50; cited from earlier work

Compound: COc1ncccc1C1c2c(CC(C)C)n[nH]c2C(=O)N1c1ccc2ncnn2c1 (stereo not shown) [BUCMD00162]
- B10R Host Cell CC50 (B10R cells): >10 µM

Compound: COc1ccc(N2C(=O)c3[nH]nc(CC(C)C)c3C2c2ccccc2)cc1 (stereo not shown) [CMLD007427]
- L. major amastigotes EC75 (THP-1 cells) [1]: 1.7^b μM
- CC50 [2]: 31.6 µM
- pEC50 [3]: 5.49
- pEC50 [4]: 5.38
- pEC50 [5]: 5.62
- inhibition at 10 µM (THP-1 cells): 11%
- L. donovani amastigotes % GI at 10 μM (THP-1 cells) [6]: 100.0%
- L. donovani amastigotes EC75 (B10R cells) [7]: 1.1 µM

Compound: COc1ccc(N2C(=O)c3[nH]nc(CC(C)C)c3C2c2ccc(F)cc2)cc1 (stereo not shown) [CMLD007431]
- L. major amastigotes EC75 (THP-1 cells) [1]: 1.3^b μM
- CC50 [2]: > 20 µM
- pEC50 [3]: 5.60
- pEC50 [4]: 5.36
- pEC50 [5]: 5.70
- inhibition at 10 µM (THP-1 cells): 13%
- L. donovani amastigotes % GI at 10 μM (THP-1 cells) [6]: 99.0%
- L. donovani amastigotes EC75 (B10R cells) [7]: 1.0 µM

Compound: Cc1cc(F)ccc1C1c2c(CC(C)C)n[nH]c2C(=O)N1c1ccc2ncnn2c1 (stereo not shown) [CMLD010948]
- L. major infection in vitro [8]: reduce L. major infection
- number of intracellular amastigotes [8]: significant decreased
- percentage of infected cells [8]: significant decreased
- L. braziliensis amastigotes EC75 (J774 cells) [9]: 5.5 µM
- cell viability of macrophages [10]: did not change cell viability
- CC50 [2]: > 20 µM
- leishmanicidal effect on L. braziliensis infection in vitro [11]: reduces L. braziliensis infection
- number of amastigotes per 100 macrophages ([11]; L. braziliensis): significant decrease
- percentage of infected macrophages ([11]; L. braziliensis): significant decrease
- pEC50 [11]: < 5.30
- L. donovani amastigotes EC75 (B10R cells) [7]: 1.1 µM
- pEC50 [7]: 6.05

Compound: COc1cc(F)ccc1C1c2c(CC(C)C)n[nH]c2C(=O)N1c1ccc(Br)cc1 (stereo not shown) [CMLD011494]
- L. major infection in vitro [8]: reduce L. major infection
- number of intracellular amastigotes [8]: significant decreased
- percentage of infected cells [8]: significant decreased
- L. braziliensis amastigotes EC75 (J774 cells) [9]: 5.2 µM
- cell viability of macrophages [10]: did not change cell viability
- CC50 [2]: 4 µM
- L. major amastigotes EC75 (J774 cells) [12]: 2.8^e μM
- leishmanicidal effect on L. braziliensis infection in vitro [11]: reduces L. braziliensis infection
- number of amastigotes per 100 macrophages ([11]; L. braziliensis): significantly reduced
- percentage of infected macrophages ([11]; L. braziliensis): significantly reduced
- number of viable promastigotes after exposure of infected BMDM ([11]; L. braziliensis, culture in Schneider medium): significantly reduced
- pEC50 [11]: 5.79
- CC50 at 72 h [13]: 3.98 µM
- L. donovani amastigotes EC75 (B10R cells) [7]: 0.1 µM
- pEC50 [7]: 7.00

Compound: C[C@H]1CN(c2n[nH]c3nc(N[C@H]4CC[C@H](NS(=O)(=O)CCC(F)(F)F)CC4)ncc23)CCO1 [GSK3186899]
- pEC50 [14]: 5.85

Compound: O=C(Nc1ccc(F)c(-c2ccn3c(N4CCOCC4)cnc3n2)c1)N1CCCC1 [GSK3494245]
- pEC50 [14]: 5.80
